Legend:
U2OS cells = assay: IncuCyte cell proliferation assay; assay type: cell-based
Description: Figure 4 Further cell-based assays with CU1 and CU2: (a, b) Representative immunofluorescence images of U2OS cells treated with HU (2.5 mM, 8 h) or cisplatin (10 μM, 8 h) in the presence or absence of CU1 (200 μM) or CU2 (500 μM). (c) Quantification of the number of FANCD2 foci in cells treated as in panels (a) and (b). Data accumulated over three independent experiments, each consisting of three technical replicas. (d) IncuCyte analysis of U2OS cells treated with or without carboplatin (15 μM) and CU2 (250 μM). Mean calculated from three wells, four images per well. (HU = DMSO + HU, cisplatin = DMSO + cisplatin).
Finally, to investigate if CU1 and CU2 could sensitize cells to a more clinically relevant chemotherapeutic agent, quantitative live cell analyses were performed using the IncuCyte platform. As the FA pathway is involved in the repair of ICLs, cells were treated with the ICL-inducing chemotherapeutic drug, carboplatin. For this experiment, U2OS cells were seeded at a relatively low (<10%) density and preincubated with CU1 or CU2 for 1 h. Carboplatin was then added to the cells and images were taken every 6 h for 8 days in order to monitor growth and proliferation of the cells.
Reaction mixtures were incubated for the indicated time at 37 °C and stopped by the addition of 2X reducing SDS -PAGE sample buffer, separated on NuPAGE Novex 4 –12% Bis/Tris gradient gels (Invitrogen) and visualized by Western blotting using the indicated antibodies (Table S3).
Cell culture. U2OS cells were cultured at 37 °C in a humidified atmosphere and 5% (v/v) CO2 in Dulbecco's Modified Eagle Medium (DMEM; Sigma-Aldrich) supplemented with 10% (v/v) fetal bovine serum (FBS), 100 units/ml of penicillin, […] of streptomycin and 292 μg/mL L-glutamine.
Cell extract preparation and immunoblotting. U2OS cells were lysed in buffer containing 50 mM Tris-HCl pH 7.5, 2% SDS, 10 mM NEM, cocktail protease inhibitor (Roche) and phosphatase inhibitor cocktail followed by sonication 100 µg of extracts were boiled for 5 mins at 95 °C in 5X loading buffer and loaded onto NuPAGE Novex 4–12% Bis/Tris gradient gels
(Invitrogen), or NuPAGE Novex 3-8% Tris/Acetate gradient gels (Invitrogen) for detection of mUb-FANCD2. After separation the gels were transferred to PVDF and the membranes were blocked with Tris-buffered saline containing 0.1% (v/v) Tween-20 (TBST) and 5% (v/v) bovine serum albumin (BSA) and incubated with the indicated primary and secondary antibodies. mUb-FANCD2 intensity was quantified using Image Studio (LI-COR).
IncuCyte cell proliferation assays. 2000 U2OS cells were seeded per well in 96-well plates and treated with compounds 24 hours afterwards. After 1 hour of compound treatment, 15 µM carboplatin (Sigma-Aldrich) was added and the cells were cultured in an incubator with an IncuCyte microscopy -platform (Essen BioScience). Phase -contrast images were acquired every 6 hours for 8 days until DMSO-carboplatin treated cells reached >80% confluence. Cell proliferation was monitored as the occupied area (% confluence) of cell images over time and calculated as percentage confluence over time. Cell confluency percentages were calculated using the integrated Cell Player software and results were analysed with Prism 6 (GraphPad Software).

[1] = Tolerance / cytotoxicity of compounds in U2OS cells; assay type: cell-based; details: human, u2os cells, 8 h assay, read-out: concentration above which cytotoxic
Description: U2OS cells were treated with HU and the formation of mUb-FANCD2 in the presence of CU 1, CU2, and CU9 was evaluated relative to a DMSO control. Following a 1-h preincubation with the compounds, cells were treated with 2.5 mM of HU for 24 h. […] Accordingly, cells were treated with a higher concentration of compounds in further experiments.

Row | Structure (SMILES) | confluency (U2OS cells; 250 μM CU2 combined with 15 μM carboplatin, after 8 days) [%] | effect on cell growth (U2OS cells; CU2 250 μM alone) | confluency (U2OS cells; CU2 250 μM alone, after 6 days) [%] | effect on cells upon longer cellular exposures (U2OS cells; CU2 500 μM, IncuCyte, up to 8 days) | MCC at 8 h [1] [µM] | combined effect with carboplatin on cell growth (U2OS cells; 50 μM CU1 with 15 μM carboplatin) | concentrations that strongly inhibit cell growth (U2OS cells; IncuCyte) [µM]
1 | CCN1CCN(c2cc(C)nc3nc(CN4CCCCC4C)nn23)CC1 (stereo not shown) [CU2] | < 50 | minimal effect on cell growth | 100 | cytotoxic/cytostatic |  |  | 
2 | NCCN1C(=O)CC[C@H]2CN(Cc3cccc(-c4ccco4)c3)CC[C@H]21 [CU1] |  |  |  |  | > 300 | far less pronounced than that observed for CU2 | > 50

Reference: PMC6804243, “Small-Molecule Inhibition of UBE2T/FANCL-Mediated Ubiquitylation in the Fanconi Anemia Pathway” (ACS Chemical Biology, 2019)
